Assay results from publication PMC6120666 (The EMBO Journal, 2018).

Experiments:
Assay in all cases: Drug affinity chromatography with c-ponatinib and LC-MS/MS (ponatinib interactome)
Assay type in all cases: binding
[1] = biological target: T1, proteins of U2OS cell lysate (Homo sapiens, UniProt P09493); conditions: captured protein TPM1, Rank 202
T1 construct: Proteins enriched by c-ponatinib from U2OS cell lysate; endogenous in cells; host or cells: U2OS cell lysate
How it was run: (§1)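 Proteins were identified by nano-UPLC–MS/MS after elution with formic acid and trypsin digestion. They were captured from U2OS lysate (2 mg protein per pulldown, NP-40 buffer) on amine-coupled NHS beads during a 2 h incubation at 4 °C.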

[2] = biological target: T2, proteins of U2OS cell lysate (Homo sapiens, UniProt Q99623); conditions: PHB2, Prohibitin-2
T2 construct: Proteins enriched by c-ponatinib from U2OS cell lysate; endogenous in cells; host or cells: U2OS cell lysate
How it was run: as §1

[3] = biological target: T3, proteins of U2OS cell lysate (Homo sapiens, UniProt O95232); conditions: LUC7L3, Luc7-like protein 3
T3 construct: Proteins enriched by c-ponatinib from U2OS cell lysate; endogenous in cells; host or cells: U2OS cell lysate
T3 sequence (O95232 whole entry): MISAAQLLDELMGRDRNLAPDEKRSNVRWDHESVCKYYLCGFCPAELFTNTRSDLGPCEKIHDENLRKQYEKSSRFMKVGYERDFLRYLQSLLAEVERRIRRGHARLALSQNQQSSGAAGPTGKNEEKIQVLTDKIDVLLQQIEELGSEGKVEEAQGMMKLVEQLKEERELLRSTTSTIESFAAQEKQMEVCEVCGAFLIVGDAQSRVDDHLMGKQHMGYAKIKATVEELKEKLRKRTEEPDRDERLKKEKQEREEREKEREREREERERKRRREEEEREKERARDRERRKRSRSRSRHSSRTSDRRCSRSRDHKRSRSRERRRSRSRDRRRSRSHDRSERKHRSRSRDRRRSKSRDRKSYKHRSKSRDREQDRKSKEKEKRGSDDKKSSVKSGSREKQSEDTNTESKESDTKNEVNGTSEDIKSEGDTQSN
How it was run: as §1

[4] = biological target: T4, proteins of U2OS cell lysate (Homo sapiens, UniProt O43353); conditions: RIPK2, Receptor-interacting serine/threonine-protein kinase 2
T4 construct: Proteins enriched by c-ponatinib from U2OS cell lysate; endogenous in cells; host or cells: U2OS cell lysate
How it was run: as §1

[5] = biological target: T5, proteins of U2OS cell lysate (Homo sapiens, UniProt P23284); conditions: PPIB, Peptidyl-prolyl cis-trans isomerase B
T5 construct: Proteins enriched by c-ponatinib from U2OS cell lysate; endogenous in cells; host or cells: U2OS cell lysate
T5 sequence (P23284 34-216): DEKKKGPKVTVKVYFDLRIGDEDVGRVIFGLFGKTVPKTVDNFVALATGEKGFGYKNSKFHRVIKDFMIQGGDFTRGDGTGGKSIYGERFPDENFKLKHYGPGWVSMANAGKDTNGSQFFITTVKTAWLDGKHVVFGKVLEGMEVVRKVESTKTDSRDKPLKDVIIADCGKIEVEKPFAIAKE
How it was run: as §1

[6] = biological target: T6, proteins of U2OS cell lysate (Homo sapiens, UniProt P34932); conditions: HSPA4, Heat shock 70 kDa protein 4
T6 construct: Proteins enriched by c-ponatinib from U2OS cell lysate; endogenous in cells; host or cells: U2OS cell lysate
How it was run: as §1

[7] = biological target: T7, proteins of U2OS cell lysate (Homo sapiens, UniProt O14974); conditions: PPP1R12A, Protein phosphatase 1 regulatory subunit 12A
T7 construct: Proteins enriched by c-ponatinib from U2OS cell lysate; endogenous in cells; host or cells: U2OS cell lysate
T7 sequence (O14974 whole entry): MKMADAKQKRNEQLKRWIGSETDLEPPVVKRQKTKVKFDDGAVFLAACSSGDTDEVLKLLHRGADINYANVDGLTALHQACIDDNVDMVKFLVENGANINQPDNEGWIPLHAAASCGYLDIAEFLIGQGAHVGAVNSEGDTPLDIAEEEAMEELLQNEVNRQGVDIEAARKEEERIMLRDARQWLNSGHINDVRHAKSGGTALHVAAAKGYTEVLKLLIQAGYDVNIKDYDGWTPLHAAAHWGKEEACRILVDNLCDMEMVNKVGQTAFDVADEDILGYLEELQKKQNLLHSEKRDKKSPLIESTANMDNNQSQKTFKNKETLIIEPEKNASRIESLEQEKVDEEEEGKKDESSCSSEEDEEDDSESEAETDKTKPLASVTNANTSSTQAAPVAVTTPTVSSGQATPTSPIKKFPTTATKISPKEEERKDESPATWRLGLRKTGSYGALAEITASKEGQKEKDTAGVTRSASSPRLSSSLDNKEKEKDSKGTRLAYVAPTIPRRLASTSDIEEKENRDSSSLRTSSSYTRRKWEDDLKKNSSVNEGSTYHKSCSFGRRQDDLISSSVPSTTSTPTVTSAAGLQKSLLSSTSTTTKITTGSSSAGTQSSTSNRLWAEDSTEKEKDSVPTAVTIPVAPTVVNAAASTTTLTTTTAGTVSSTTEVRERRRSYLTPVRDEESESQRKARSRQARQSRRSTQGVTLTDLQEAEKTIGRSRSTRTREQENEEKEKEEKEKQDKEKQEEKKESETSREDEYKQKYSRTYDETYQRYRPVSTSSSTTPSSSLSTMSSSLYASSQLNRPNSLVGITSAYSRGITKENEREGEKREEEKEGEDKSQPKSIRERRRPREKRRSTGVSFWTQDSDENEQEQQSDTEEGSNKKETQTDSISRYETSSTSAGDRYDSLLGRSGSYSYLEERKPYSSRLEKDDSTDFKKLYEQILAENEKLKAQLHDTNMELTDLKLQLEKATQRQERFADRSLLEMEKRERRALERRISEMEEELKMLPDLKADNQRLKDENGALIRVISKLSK
How it was run: as §1

[8] = biological target: T8, proteins of U2OS cell lysate (Homo sapiens, UniProt P78371); conditions: CCT2, T-complex protein 1 subunit beta
T8 construct: Proteins enriched by c-ponatinib from U2OS cell lysate; endogenous in cells; host or cells: U2OS cell lysate
How it was run: as §1

[9] = biological target: T9, proteins of U2OS cell lysate (Homo sapiens, UniProt P08238); conditions: HSP90AB1, Heat shock protein HSP 90-beta
T9 construct: Proteins enriched by c-ponatinib from U2OS cell lysate; endogenous in cells; host or cells: U2OS cell lysate
T9 sequence (P08238 whole entry): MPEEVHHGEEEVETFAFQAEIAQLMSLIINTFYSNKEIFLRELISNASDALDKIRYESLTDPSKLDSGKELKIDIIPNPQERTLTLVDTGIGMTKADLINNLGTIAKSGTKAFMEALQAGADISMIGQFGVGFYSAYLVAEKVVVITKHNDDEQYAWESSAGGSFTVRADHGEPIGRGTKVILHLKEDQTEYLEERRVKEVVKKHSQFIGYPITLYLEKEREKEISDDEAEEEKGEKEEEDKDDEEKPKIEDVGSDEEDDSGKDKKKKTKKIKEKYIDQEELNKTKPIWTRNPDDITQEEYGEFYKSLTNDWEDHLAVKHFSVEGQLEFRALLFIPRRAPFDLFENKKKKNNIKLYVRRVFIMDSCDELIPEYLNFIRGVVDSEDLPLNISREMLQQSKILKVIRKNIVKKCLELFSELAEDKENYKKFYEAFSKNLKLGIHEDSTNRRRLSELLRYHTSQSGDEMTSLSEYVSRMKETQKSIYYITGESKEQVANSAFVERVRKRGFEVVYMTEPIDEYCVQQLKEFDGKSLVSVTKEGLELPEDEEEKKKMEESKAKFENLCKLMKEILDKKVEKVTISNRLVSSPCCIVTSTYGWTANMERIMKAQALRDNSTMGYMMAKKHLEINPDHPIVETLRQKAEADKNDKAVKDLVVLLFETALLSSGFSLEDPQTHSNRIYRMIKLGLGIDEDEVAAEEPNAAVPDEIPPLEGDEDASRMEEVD
How it was run: as §1

[10] = biological target: T10, proteins of U2OS cell lysate (Homo sapiens, UniProt P50991); conditions: CCT4, T-complex protein 1 subunit delta
T10 construct: Proteins enriched by c-ponatinib from U2OS cell lysate; endogenous in cells; host or cells: U2OS cell lysate
How it was run: as §1

[11] = biological target: T11, proteins of U2OS cell lysate (Homo sapiens, UniProt P50990); conditions: CCT8, T-complex protein 1 subunit theta
T11 construct: Proteins enriched by c-ponatinib from U2OS cell lysate; endogenous in cells; host or cells: U2OS cell lysate
T11 sequence (P50990 whole entry): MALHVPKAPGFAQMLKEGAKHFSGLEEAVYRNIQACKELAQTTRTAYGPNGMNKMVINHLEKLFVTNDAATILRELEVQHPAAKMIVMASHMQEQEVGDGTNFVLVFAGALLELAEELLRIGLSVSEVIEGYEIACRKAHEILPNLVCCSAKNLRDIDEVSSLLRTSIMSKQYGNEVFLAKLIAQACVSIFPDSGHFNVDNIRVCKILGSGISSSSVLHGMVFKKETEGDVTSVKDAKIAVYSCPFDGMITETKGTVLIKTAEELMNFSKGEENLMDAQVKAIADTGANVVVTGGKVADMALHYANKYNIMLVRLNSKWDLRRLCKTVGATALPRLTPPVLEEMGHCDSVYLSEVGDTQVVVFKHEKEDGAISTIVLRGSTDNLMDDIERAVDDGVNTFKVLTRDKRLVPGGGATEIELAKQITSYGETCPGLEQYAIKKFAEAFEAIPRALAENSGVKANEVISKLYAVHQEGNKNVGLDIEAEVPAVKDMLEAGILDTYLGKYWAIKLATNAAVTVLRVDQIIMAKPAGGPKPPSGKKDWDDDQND
How it was run: as §1

[12] = biological target: T12, proteins of U2OS cell lysate (Homo sapiens, UniProt P39019); conditions: RPS19, 40S ribosomal protein S19
T12 construct: Proteins enriched by c-ponatinib from U2OS cell lysate; endogenous in cells; host or cells: U2OS cell lysate
How it was run: as §1

[13] = biological target: T13, proteins of U2OS cell lysate (Homo sapiens, UniProt P13861); conditions: PRKAR2A, cAMP-dependent protein kinase type II-alpha regulatory subunit
T13 construct: Proteins enriched by c-ponatinib from U2OS cell lysate; endogenous in cells; host or cells: U2OS cell lysate
T13 sequence (P13861 whole entry): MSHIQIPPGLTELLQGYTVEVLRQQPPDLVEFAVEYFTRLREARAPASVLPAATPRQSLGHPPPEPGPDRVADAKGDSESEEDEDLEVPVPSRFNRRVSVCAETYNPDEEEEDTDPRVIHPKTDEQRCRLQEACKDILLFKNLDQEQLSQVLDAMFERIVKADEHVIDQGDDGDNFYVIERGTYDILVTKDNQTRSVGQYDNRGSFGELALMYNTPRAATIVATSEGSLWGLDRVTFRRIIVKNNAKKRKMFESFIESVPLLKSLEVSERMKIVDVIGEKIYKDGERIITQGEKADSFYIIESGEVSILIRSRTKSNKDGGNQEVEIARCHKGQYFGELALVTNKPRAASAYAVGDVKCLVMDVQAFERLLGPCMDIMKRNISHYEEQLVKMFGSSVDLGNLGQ
How it was run: as §1

[14] = biological target: T14, proteins of U2OS cell lysate (Homo sapiens, UniProt P49756); conditions: RBM25, RNA-binding protein 25
T14 construct: Proteins enriched by c-ponatinib from U2OS cell lysate; endogenous in cells; host or cells: U2OS cell lysate
How it was run: as §1

[15] = biological target: T15, proteins of U2OS cell lysate (Homo sapiens, UniProt P25705); conditions: ATP5A1, ATP synthase subunit alpha, mitochondrial
T15 construct: Proteins enriched by c-ponatinib from U2OS cell lysate; endogenous in cells; host or cells: U2OS cell lysate
T15 sequence (P25705 44-553): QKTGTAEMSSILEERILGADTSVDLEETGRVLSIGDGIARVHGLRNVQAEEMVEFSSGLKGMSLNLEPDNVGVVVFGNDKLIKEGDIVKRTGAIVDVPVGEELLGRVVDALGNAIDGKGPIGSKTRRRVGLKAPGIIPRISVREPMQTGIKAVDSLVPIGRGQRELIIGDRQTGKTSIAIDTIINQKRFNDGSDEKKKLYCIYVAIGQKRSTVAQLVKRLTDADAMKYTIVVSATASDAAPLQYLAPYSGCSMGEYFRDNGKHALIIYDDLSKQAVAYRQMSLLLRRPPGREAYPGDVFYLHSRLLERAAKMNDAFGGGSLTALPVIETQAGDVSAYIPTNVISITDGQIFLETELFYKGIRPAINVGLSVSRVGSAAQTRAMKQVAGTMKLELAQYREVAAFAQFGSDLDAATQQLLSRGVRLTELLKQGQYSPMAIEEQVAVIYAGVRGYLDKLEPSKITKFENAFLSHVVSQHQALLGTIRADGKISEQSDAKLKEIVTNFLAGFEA
How it was run: as §1

[16] = biological target: T16, proteins of U2OS cell lysate (Homo sapiens, UniProt P49759); conditions: CLK1, Dual specificity protein kinase CLK1
T16 construct: Proteins enriched by c-ponatinib from U2OS cell lysate; endogenous in cells; host or cells: U2OS cell lysate
T16 sequence (P49759 whole entry): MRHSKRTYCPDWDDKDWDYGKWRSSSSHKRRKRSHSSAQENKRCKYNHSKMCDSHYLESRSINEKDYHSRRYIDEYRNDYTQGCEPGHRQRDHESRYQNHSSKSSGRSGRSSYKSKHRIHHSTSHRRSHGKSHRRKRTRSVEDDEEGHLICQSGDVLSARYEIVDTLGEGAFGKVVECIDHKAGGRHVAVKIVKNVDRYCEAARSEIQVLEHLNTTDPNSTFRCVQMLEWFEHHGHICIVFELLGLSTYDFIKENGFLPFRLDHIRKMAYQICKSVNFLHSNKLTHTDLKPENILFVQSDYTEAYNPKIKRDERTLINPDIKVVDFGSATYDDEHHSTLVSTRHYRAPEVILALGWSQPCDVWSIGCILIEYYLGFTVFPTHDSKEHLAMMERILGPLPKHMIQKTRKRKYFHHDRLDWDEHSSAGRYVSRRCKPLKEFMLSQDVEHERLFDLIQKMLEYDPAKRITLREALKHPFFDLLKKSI
How it was run: as §1

[17] = biological target: T17, proteins of U2OS cell lysate (Homo sapiens, UniProt P54753); conditions: EPHB3, Ephrin type-B receptor 3
T17 construct: Proteins enriched by c-ponatinib from U2OS cell lysate; endogenous in cells; host or cells: U2OS cell lysate
How it was run: as §1

[18] = biological target: T18, proteins of U2OS cell lysate (Homo sapiens, UniProt Q00325); conditions: SLC25A3, Phosphate carrier protein, mitochondrial
T18 construct: Proteins enriched by c-ponatinib from U2OS cell lysate; endogenous in cells; host or cells: U2OS cell lysate
T18 sequence (Q00325 50-362): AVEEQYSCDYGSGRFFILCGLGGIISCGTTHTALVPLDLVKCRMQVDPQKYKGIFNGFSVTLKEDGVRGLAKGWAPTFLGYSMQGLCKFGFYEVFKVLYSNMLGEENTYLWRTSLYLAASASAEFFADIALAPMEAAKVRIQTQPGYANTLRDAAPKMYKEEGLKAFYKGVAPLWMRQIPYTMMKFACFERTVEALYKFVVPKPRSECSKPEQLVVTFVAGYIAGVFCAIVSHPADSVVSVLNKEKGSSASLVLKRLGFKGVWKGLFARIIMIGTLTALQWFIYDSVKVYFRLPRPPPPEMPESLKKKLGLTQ
How it was run: as §1

[19] = biological target: T19, proteins of U2OS cell lysate (Homo sapiens, UniProt O95347); conditions: SMC2, Structural maintenance of chromosomes protein 2
T19 construct: Proteins enriched by c-ponatinib from U2OS cell lysate; endogenous in cells; host or cells: U2OS cell lysate
How it was run: as §1

T1 sequence (P09493 whole entry): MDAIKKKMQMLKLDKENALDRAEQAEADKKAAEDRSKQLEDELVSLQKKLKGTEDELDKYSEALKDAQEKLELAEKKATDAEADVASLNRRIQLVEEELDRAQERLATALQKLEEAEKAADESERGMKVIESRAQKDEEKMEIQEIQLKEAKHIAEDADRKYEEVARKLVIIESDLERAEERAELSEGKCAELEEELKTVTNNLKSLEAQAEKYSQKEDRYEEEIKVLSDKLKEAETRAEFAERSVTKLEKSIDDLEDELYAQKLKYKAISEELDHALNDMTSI

SMILES | Average LFQ intensity [1] | Average LFQ PON_WT [2] | Average LFQ PON_WT [3] | Average LFQ PON_WT [4] | Average LFQ PON_WT [5] | Average LFQ PON_WT [6] | Average LFQ PON_WT [7] | Average LFQ PON_WT [8] | Average LFQ PON_WT [9] | Average LFQ PON_WT [10] | Average LFQ PON_WT [11] | Average LFQ PON_WT [12] | Average LFQ PON_WT [13] | Average LFQ PON_WT [14] | Average LFQ PON_WT [15] | Average LFQ PON_WT [16] | Average LFQ PON_WT [17] | Average LFQ PON_WT [18] | Average LFQ PON_WT [19]
Cc1ccc(C(=O)Nc2ccc(CN3CCN(CCCN)CC3)c(C(F)(F)F)c2)cc1C#Cc1cnc2cccnn12 [c-ponatinib, reference compound] | 21.8321 | – | – | – | – | – | – | – | – | – | – | – | – | – | – | – | – | – | –
Cc1ccc(C(=O)Nc2ccc(CN3CCN(C)CC3)c(C(F)(F)F)c2)cc1C#Cc1cnc2cccnn12 [PON] | – | 28.7804 | 20.3652 | 27.2483 | 20.4971 | 24.3032 | 20.7589 | 24.048 | 24.5074 | 23.8741 | 24.1007 | 21.4728 | 19.7853 | 20.8592 | 26.7182 | 19.0546 | 21.3076 | 23.3948 | 20.8973
